Source: patent US20250170129A1, “SENOTHERAPEUTIC AGENTS AND ALPHA-KLOTHO POLYPEPTIDES” (Mayo Foundation for Medical Education and Researc, priority 2022, published 2025)

Legend:
[1] = test system: α-Klotho; test: Clearance of p16Ink4a-expressing cells / senolytics in old INK-ATTAC mice, α-Klotho in kidney, urine, brain; assay type: in vivo, mouse; details: 10 mg/kg i.p.
Description: AP20187 (10 mg/kg) or vehicle was administered i.p. every 2 weeks for 6 weeks. […] FIG. 3B) Kidney α-Klotho mRNA was assayed by qPCR. One-way ANOVA, F=4.81, p=0.01, R^2=0.46; *p=0.03, **p<0.01. FIG. 3C) α-Klotho protein was assayed relative to GAPDH (Western blots in FIG. 13). One-way ANOVA: F=4.81, p=0.01, R^2=0.46; *p<0.05, ****p<0.0001. FIG. 3D) Mouse urine was collected 2 days after the last dose of AP20187. Urinary α-Klotho was assayed by ELISA and expressed as a function of creatinine. One-way ANOVA, F=61.53, p<0.00001, R^2=0.90; *p=0.04, ****p<0.0001. Choroid Plexus (FIG. 3E) α-Klotho protein was assayed by immunofluorescence. One-way ANOVA, F=20.98, R^2=0.80, **p<0.01, ****p<0.0001. Hippocampal (FIG. 3F) and cerebellar (FIG. 3G) α-Klotho mRNA was assayed by qPCR. […] Means±SEM; one-way ANOVA and post hoc Tukey's tests; F=3.84, p=0.038, R^2=0.40; *p=0.04 in (FIG. 3F); *p=0.04, F=7.87, p<0.01, R^2=0.60; *p=0.03 in (FIG. 3G); F=10.85; p<0.001, R^2=0.64; *p=0.03, ***p<0.0001 in (FIG. 3H); F=5.49; p=0.01, R^2=0.49; *p<0.05, **p=0.01 in (FIG. 3I).
Old (25-26-month-old) INK-ATTAC male mice were treated with vehicle or AP20187 or D+Q (n=7). AP20187 or D+Q or vehicle was administered every 2 weeks for 6 weeks. Mouse urine was collected 5 days after the last dose of AP20187 or D+Q. Urinary α-Klotho was assayed by ELISA and expressed as a function of creatinine (FIG. 10A) or Cystatin C (FIG. 10B). One-way ANOVA, A: *p=0.038, **p=0.0066, B: *p=0.048, **p=0.0048.
INK-ATTAC mice were as described elsewhere (Baker et al., Nature, 479(7372):232-6 (2011)). Briefly, in INK-ATTAC mice, the ATTAC gene is driven by a senescence-related p16^Ink4a promoter fragment. The fusion protein product of the ATTAC “suicide” gene contains a mutated FKBP moiety that can be cross-linked by AP20187, thereby activating the ATTAC protein caspase-8 moieties, causing apoptosis. […]
Each cDNA sample was generated by reverse transcription using 1 μg RNA following the manufacturer's protocol (Thermo Fisher Scientific). […] Data were analysed by the ΔΔCt method. […]

[2] = test system: activin A; test: Activin A mRNA in kidney of old INK-ATTAC mice (qPCR); assay type: in vivo, mouse; details: 10 mg/kg i.p. (FIG. 3H)
Description: (§1) FIGS. 3A-3I. Genetic clearance of highly p16^Ink4a-expressing cells increases α-Klotho. Young (8-month-old) or old (27-29-month-old) INK-ATTAC male mice were treated with vehicle or AP20187 (n=3 young+vehicle; n=3 young+AP20187; n=7 old+vehicle; n=7 old+AP20187) to dimerize the FKBP-caspase-8 fusion protein expressed in highly p16^Ink4a-expressing cells to selectively eliminate […]. AP20187 (10 mg/kg) or vehicle was administered i.p. every 2 weeks for 6 weeks. FIG. 3A) Schematic view of treatments. FIG. 3B) Kidney α-Klotho mRNA was assayed by qPCR. One-way ANOVA, F=4.81, p=0.01, R^2=0.46; *p=0.03, **p<0.01. FIG. 3C) α-Klotho protein was assayed relative to GAPDH (Western blots in FIG. 13). One-way ANOVA: F=4.81, p=0.01, R^2=0.46; *p<0.05, ****p<0.0001. FIG. 3D) Mouse urine was collected 2 days after the last dose of AP20187. Urinary α-Klotho was assayed by ELISA and expressed as a function of creatinine. One-way ANOVA, F=61.53, p<0.00001, R^2=0.90; *p=0.04, ****p<0.0001. Choroid Plexus (FIG. 3E) α-Klotho protein was assayed by immunofluorescence. […]
(§2) Each cDNA sample was generated by reverse transcription using 1 μg RNA following the manufacturer's protocol (Thermo Fisher Scientific). […] Data were analysed by the ΔΔCt method.
(§3) Next, it was determined if removal of p16^Ink4a-expressing cells, many of which are senescent, increases α-Klotho in old mice. […]

[3] = test system: IL-1α; test: IL-1α mRNA in hippocampus of old INK-ATTAC mice (qPCR); assay type: in vivo, mouse; details: 10 mg/kg i.p. (FIG. 3I)
Description: as §1, §2, §3

[4] = test system: α-Klotho; test: Senolytics / AP20187 in young INK-ATTAC mice, kidney and urinary α-Klotho; assay type: in vivo, mouse; details: young (3-month-old) INK-ATTAC mice; Dasatinib (5 mg/kg) plus Quercetin (50 mg/kg) or AP20187 (10 mg/kg) (FIG. 12A)
Description: FIGS. 12A-12B. […] 3-month-old female INK-ATTAC mice were treated with vehicle, Dasatinib (5 mg/kg) plus Quercetin (50 mg/kg), or AP20187 (10 mg/kg). FIG. 12A) Kidneys were harvested and lysed to assay α-Klotho protein by Western blotting. FIG. 12B) Urinary α-Klotho in the same cohort was assayed by ELISA after a second and third treatment with senolytic agents and expressed as a function of creatinine.
α-Klotho was assayed by ELISA in 1:100 diluted mouse urine (IBL America, #27601). Human urine α-Klotho was assayed by ELISA (IBL America, #27998, RRID:AB_2750859). Urine α-Klotho measurements are expressed as a function of urine volume, creatinine (R&D Systems, #KGE005), and/or cystatin C (R&D Systems, #MSCTC0).
Tissue extracts were homogenized using a Bead Mill 24 homogenizer (Waltham) and lysed in NETN buffer (20 mM Tris-HCl, pH 8.0, 100 mM NaCl, 1 mM EDTA, 0.5% Nonidet P-40), 5 mM NaF, a protease inhibitor cocktail (Millipore Sigma), and 5 mM nicotinamide. After incubating 30 minutes at 4° C., samples were centrifuged at 15,000 rpm for 10 minutes at 4° C. Protein concentrations of the supernatants were determined by the Bradford protein assay (BioRad). Lysates were separated by SDS-PAGE and transferred by electrophoresis to PVDF membranes (Millipore Sigma). […]

[5] = test system: α-Klotho; test: Senolytics on non-senescent human astrocytes, α-Klotho Western blot and qPCR; assay type: cell-based; details: Dasatinib (200 nM) plus Quercetin (10 μM) or Fisetin (10 μM), 48 hours
Description: FIGS. 11A-11C. […] Non-senescent human astrocytes were treated with vehicle, Dasatinib (200 nM) plus Quercetin (10 μM), or Fisetin (10 μM) for 48 hours. FIG. 11A) α-Klotho was assayed by Western blotting with GAPDH as the loading control. FIG. 11B) α-Klotho mRNA was assayed by qPCR. FIG. 11C) Non-senescent human adipose progenitor cells were treated with Dasatinib (500 nM) plus Quercetin ([…]) or vehicle for 48 hours. α-Klotho mRNA was assayed by qPCR.

[6] = test system: α-Klotho; test: Senolytics in mice transplanted with senescent preadipocytes, urinary α-Klotho; assay type: in vivo, mouse; details: young mice transplanted i.p. with senescent cells, treated after 3 months (FIG. 4C)
Description: FIGS. 4A-4D. Senolytics increase urinary and kidney α-Klotho in old or obese mice. FIG. 4A) Naturally-aged male mice (28-29-month-old, n=10 in each group) were treated with vehicle, Dasatinib plus Quercetin (D+Q), or Fisetin. Urinary α-Klotho was measured by ELISA and expressed as a function of creatinine. One-way ANOVA: F=6.39; p<0.0^5, R^2=0.30; *p=0.02, **p<0.01. FIG. 4B) DIO mice (male, 10-month-old, n=8) were treated with vehicle or D+Q and urinary α-Klotho was assayed by ELISA and expressed as a function of creatinine. Unpaired T test; **p<0.01. FIG. 4C) Six-month-old male mice (n=6 in each group) were transplanted i.p. with senescent preadipocytes. After 3 months, they were treated with vehicle, D+Q, or Fisetin. Urinary α-Klotho was assayed by ELISA and expressed as a function of creatinine. One-way ANOVA and post hoc Tukey's tests: Kruskal-Wallis statistic=10.19; *p=0.02, **p<0.01. FIG. 4D) Kidney α-Klotho protein was also assayed in the same transplanted mice by Western blotting. One-way ANOVA: F=24.24; p<0.001, R^2=0.83; ***p<0.001. […]
α-Klotho was assayed by ELISA in 1:100 diluted mouse urine (IBL America, #27601). […] Urine α-Klotho measurements are expressed as a function of urine volume, creatinine (R&D Systems, #KGE005), and/or cystatin C (R&D Systems, #MSCTC0).

[7] = test system: α-Klotho; test: Senolytics in naturally-aged mice, α-Klotho in urine, kidney, brain; assay type: in vivo, mouse; details: naturally-aged male mice 28-29-month-old, oral, vs vehicle (FIG. 4A)
Description: Wild-type C57BL/6 mice were randomly assigned to D+Q, Fisetin (F), or vehicle treatments. Treatments were started at age 26-27 months for old animals, and for DIO mice after 7-8 months of high fat-feeding beginning at 4 months of age. Mice were treated every 20 days with D+Q, F, or vehicle by oral gavage for 3 consecutive days in each of 3 cycles over 2 months (9 doses in total).

[8] = test system: α-Klotho; test: Recombinant SASP factor treatment of non-senescent HUVECs, α-Klotho qPCR; assay type: cell-based, human; details: non-senescent HUVECs treated with recombinant protein (FIG. 1E)
From the text: (§4) FIGS. 1A-1F. Senescent cell conditioned medium decreases α-Klotho; blocking particular SASP factors with neutralizing antibodies partially restores α-Klotho. FIGS. 1A-1C) Conditioned media (CM) collected from senescent or non-senescent (FIG. 1A) human primary kidney endothelial cells (HKEs; one-way ANOVA: F=19.10, p<0.0001, R^2=0.89; n=3; ****p<0.0001); (FIG. 1B) human umbilical vein endothelial cells (HUVECs; one-way ANOVA: F=3.02, p=0.02, R^2=0.58, n=3; *p=0.02, **p=0.01); or (FIG. 1C) human brain astrocytes (HBAs; one-way ANOVA: F=7.93, p=0.02, R^2=0.66; n=5; ***p<0.001, *p=0.03) were applied to non-senescent HKEs, HUVECs, or HBAs, respectively, with or without antibodies against PAI-1, CXCL1, IL-6, activin A, TNF-α, IL-1α, IL-1β, or IL-18 for 48 hours. α-Klotho mRNA was assayed by qPCR. Means SEM. FIGS. 1D-1F) Primary HKEs (FIG. 1D; n=4), HUVECs (FIG. 1E; n=4), or HBAs (FIG. 1F; n=4) were treated with recombinant activin A or IL-1α. α-Klotho was assayed by qPCR 24 hours after treatments. Means±SEM; unpaired T-tests; ***p<0.001, ****p<0.0001. […]
as §2

[9] = test system: α-Klotho; test: Recombinant SASP factor treatment of non-senescent HBAs, α-Klotho qPCR; assay type: cell-based, human; details: non-senescent HBAs treated with recombinant protein (FIG. 1F)
From the text: as §4, §2

[10] = test system: α-Klotho; test: Recombinant SASP factor treatment of non-senescent HKEs, α-Klotho qPCR; assay type: cell-based, human; details: non-senescent HKEs treated with recombinant protein (FIG. 1D)
From the text: as §4, §2

Molecule: CC[C@H](C(=O)N1CCCC[C@H]1C(=O)O[C@H](CCc1ccc(OC)c(OC)c1)c1cccc(OCC(=O)NCC(CNC(=O)COc2cccc([C@@H](CCc3ccc(OC)c(OC)c3)OC(=O)[C@@H]3CCCCN3C(=O)[C@@H](CC)c3cc(OC)c(OC)c(OC)c3)c2)CN(C)C)c1)c1cc(OC)c(OC)c(OC)c1 [AP20187]
- urinary α-Klotho (ELISA, function of creatinine) ([1]; vs vehicle (FIG. 3D, FIG. 10)): increased
- Kidney α-Klotho (mRNA by qPCR, protein by Western blot) ([1]; vs vehicle (FIGS. 3B-C)): increased
- Brain α-Klotho (choroid plexus protein IF; hippocampal and cerebellar mRNA) ([1]; vs vehicle (FIGS. 3E-G)): increased
- activin A in kidneys (mRNA, qPCR) [2]: decreased
- IL-1α in brains (hippocampus mRNA, qPCR) [3]: decreased
- kidney α-Klotho (protein, Western blotting) [4]: did not increase

Molecule: O=c1c(O)c(-c2ccc(O)c(O)c2)oc2cc(O)ccc12 [F, Fisetin]
- α-Klotho (Western blotting, mRNA qPCR) [5]: did not increase
- urinary α-Klotho (ELISA, function of creatinine) [6]: increased
- urine α-Klotho (ELISA, function of creatinine) [7]: increased

B1: IL-1α: recombinant human IL-1α protein (R&D Systems, #00-LA-010) (protein, UniProt P01583 113-271, looked up)
Interleukin-1 alpha: SAPFSFLSNVKYNFMRIIKYEFILNDALNQSIIRANDQYLTAAALHNLDEAVKFDMGAYKSSKDDAKITVILRISKTQLYVTAQDEDQPVLLKEMPEIPKTITGSETNLLFFWETHGTKNYFTSVAHPNLFIATKQDYWVCLAGGPPSITDFQILENQA
- expression of α-Klotho (qPCR) [8]: decreased expression of α-Klotho
- expression of α-Klotho (qPCR) [9]: decreased expression of α-Klotho
- expression of α-Klotho (qPCR) [10]: decreased expression of α-Klotho

B2: recombinant activin A: recombinant human activin A (R&D Systems, #338-AC) (protein, UniProt P08476 311-426, looked up)
Inhibin beta A chain: GLECDGKVNICCKKQFFVSFKDIGWNDWIIAPSGYHANYCEGECPSHIAGTSGSSLSFHSTVINHYRMRGHSPFANLKSCCVPTKLRPMSMLYYDDGQNIIKKDIQNMIVEECGCS
- expression of α-Klotho (qPCR) [8]: decreased expression of α-Klotho
- expression of α-Klotho (qPCR) [9]: decreased expression of α-Klotho
- expression of α-Klotho (qPCR) [10]: decreased expression of α-Klotho
